From patent US20110015226A1, “Treatment of Energy Utilization Disease” (SUMMIT CORPORATION PLC, priority 2008, published 2011)
“And” between values parts separate entries of the source, which are not always exact repeats. Equal values may be shown once. Read-outs that look alike come from different tables or passages of the source.

Legend:
[1] = target: T1, rabbit intestinal sucrase (Oryctolagus cuniculus, UniProt P07768); assay: Rabbit disaccharidase inhibition assay: sucrase; type: biochemical; conditions: NI: no inhibition at 0.8 mM
T1 construct: The small intestine was dissected out of a female wild rabbit; from tissue; host or cells: small-intestinal mucosa of a female wild rabbit
Procedure: (§1) Sucrose (8.3 mM), maltose (5 mM) and isomaltose (6.3 mM) substrates were made using 0.2 M Macllvaine (citrate-phosphate) buffer, pH 6.0. The glucose detection reagent was prepared according to the supplier's instructions (Megazyme Ltd). Linearity of the timecourse of the reaction between the glucose detection reagent and glucose was tested using a series of glucose dilutions.
(§2) The method for preparation of mammalian small intestine mucosal disaccharidases was based on Griffiths (1998), omitting ammonium sulphate fractionation steps. The small intestine was dissected out of a female wild rabbit, and opened longitudinally using a scalpel. The mucosal layer was scraped off using the edge of a clean microscope slide, and placed into 3 ml of dH2O. The mucosal layer suspension was centrifuged at around 1000 rpm for 30 seconds to sediment tissue debris. The supernatant ([…]) was removed, and centrifuged again at 3500 rcf for 1 minute to remove fine particulates from suspension. The supernatant was diluted to give 0.2-0.25 mg/ml protein and stored at −30° C.
(§3) Enzyme assays were carried out using 5-15 μl of enzyme preparation, 5 μl of test compound (or dH2O for controls) and 15-25 μl of substrate solution. Reactions were covered using a sheet of plate sealing film, and incubated at 37° C. for 60 minutes. Glucose (from disaccharide hydrolysis) was quantified by adding 200 μl of glucose detection reagent and incubating the reactions for a further twenty-five minutes. Absorbance was measured at 510 nm against control blanks.

[2] = target: rabbit intestinal maltase; assay: Rabbit disaccharidase inhibition assay: maltase; type: biochemical; conditions: NI: no inhibition at 0.8 mM
Procedure: as §1, §2, §3

[3] = target: T2, rabbit intestinal isomaltase (Oryctolagus cuniculus, UniProt P07768); assay: Rabbit disaccharidase inhibition assay: isomaltase; type: biochemical; conditions: NI: no inhibition at 0.8 mM
T2 construct: The small intestine was dissected out of a female wild rabbit; from tissue; host or cells: small-intestinal mucosa of a female wild rabbit
Procedure: as §1, §2, §3

[4] = system: N-acetyl-β-D-glucosaminidase (Bovine kidney); assay: Glycosidase inhibition: N-acetyl-β-D-glucosaminidase (Bovine kidney); type: biochemical; conditions: for % inhibition, N-acetyl-β-D-glucosaminidase (Bovine kidney): compounds tested at 0.8 mM;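 as to all read-outs here: enzyme activity followed by cleavage of the matching p-nitrophenyl glycoside (5 mM) in phosphate buffer set to the enzyme's optimal pH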
[5] = system: β-D-glucosidase (Almond); assay: Glycosidase inhibition: β-D-glucosidase (Almond); type: biochemical; conditions: compounds tested at 0.8 mM
Excerpt: (§4) The results tabulated below were obtained using commercially available glycosidases and p-nitrophenyl-substrates using standard methods described for example by Watson et al (1997) Phytochemistry 46 255-259. All enzymes and substrates were bought from Sigma. Enzyme and substrate solutions were made using sodium phosphate buffers at the pH optima values. The enzymes used were α-D-glucosidase Saccharomyces cerevisiae, Bacillus stearothermophilus, Oryzae sativa), β-D-glucosidase (Almond), α-D-mannosidase (Jack bean), α-D-galactosidase (Green coffee beans), β-D-galactosidase (Bovine liver), α-L-fucosidase (Bovine kidney), N-acetyl-β-D-glucosaminidase (Bovine kidney, Jack bean, Aspergillus oryzae), Naringinase (Penicillium decumbens) and amyloglucosidase (Aspergillus niger). All enzymes were used with the appropriate p-nitrophenyl substrates (5 mM). Amyloglucosidase activity was measured using amylopectin (0.1%) (Merck) mixed with sodium phosphate buffer, pH 4.5 in a glass bottle, and healed in a boiling water bath for 20 minutes to dissolve with released glucose measured using ‘Trinder’ glucose detection solution (Sigma).
(§5) All enzymes and para-nitrophenyl substrates were purchased from Sigma, with the exception of beta-mannosidase which came from Megazyme. Enzymes were assayed at 27° C. in 0.1M citric acid/0.2M disodium hydrogen phosphate buffers at the optimum pH for the enzyme. The incubation mixture consisted of 10 μl enzyme solution, 10 μl of 1 mg/ml aqueous solution of extract and 50 μl of the appropriate 5 mM para-nitrophenyl substrate made up in buffer at the optimum pH for the enzyme. The reactions were stopped by addition of 70 μl 0.4M glycine (pH 10.4) during the exponential phase of the reaction, which had been determined at the beginning using uninhibited assays in which water replaced inhibitor. Final absorbances were read at 405 nm using a Versamax microplate reader (Molecular Devices). Assays were carried out in triplicate, and the values given are means of the three replicates per assay. […]

[6] = system: Naringinase Penicillium decumbens; assay: Glycosidase inhibition: Naringinase Penicillium decumbens; type: biochemical; conditions: compounds tested at 0.8 mM
Excerpt: as §4, §5

[7] = system: N-acetyl-β-D-glucosaminidase (Jack bean); assay: Glycosidase inhibition: N-acetyl-β-D-glucosaminidase (Jack bean); type: biochemical; conditions: compounds tested at 0.8 mM
Excerpt: as §4, §5

[8] = system: β-D-mannosidase Cellullomonas fimi; assay: Glycosidase inhibition: β-D-mannosidase Cellullomonas fimi; type: biochemical; conditions: compounds tested at 0.8 mM
Procedure: All enzymes and para-nitrophenyl substrates were purchased from Sigma, with the exception of beta-mannosidase which came from Megazyme. Enzymes were assayed at 27° C. in 0.1M citric acid/0.2M disodium hydrogen phosphate buffers at the optimum pH for the enzyme. The incubation mixture consisted of 10 μl enzyme solution, 10 μl of 1 mg/ml aqueous solution of extract and 50 μl of the appropriate 5 mM para-nitrophenyl substrate made up in buffer at the optimum pH for the enzyme. The reactions were stopped by addition of 70 μl 0.4M glycine (pH 10.4) during the exponential phase of the reaction, which had been determined at the beginning using uninhibited assays in which water replaced inhibitor. Final absorbances were read at 405 nm using a Versamax microplate reader (Molecular Devices). Assays were carried out in triplicate, and the values given are means of the three replicates per assay. (See Watson, A. A., Nash, R. J., Wormald, M. R., Harvey, D. J., Dealler, S., Lees, E., Asano, N., Kizu, H., Kato, A., Griffiths, R. C., Cairns, A. J. and Fleet, G. W. J. (1997). Glycosidase-inhibiting pyrrolidine alkaloids from Hyacinthoides non-scripta. Phytochemistry 46 (2): 255-259.)

[9] = target: T3, rat intestinal isomaltase (Rattus norvegicus, UniProt P23739); assay: Rat intestinal glycosidases: isomaltase; type: biochemical; conditions: rat intestinal brush border membranes
T3 construct: Enzyme activities were prepared from brush border membranes of rat small intestine; from tissue; host or cells: rat small intestine brush border membranes
Procedure: (§6) Enzyme activities were prepared from brush border membranes of rat small intestine using disaccharides as substrates as described by Yasuda et al., 2002.

[10] = target: T4, rat intestinal cellobiase (Rattus norvegicus, UniProt Q02401); assay: Rat intestinal glycosidases: cellobiase; type: biochemical; conditions: rat intestinal brush border membranes
T4 construct: Enzyme activities were prepared from brush border membranes of rat small intestine; from tissue; host or cells: rat small intestine brush border membranes
Procedure: as §6

[11] = target: rat intestinal trehalase (Rattus norvegicus, UniProt G3V7Q9); assay: Rat intestinal glycosidases: trehalase; type: biochemical; conditions: rat intestinal brush border membranes
Procedure: as §6

[12] = Uptake of G2 after oral Gymnema water extract, urine monitoring; type: in vivo, human; conditions: one volunteer
Procedure: In a preliminary experiment on one volunteer to determine if G2 was readily absorbed from the gastrointestinal tract, a water extract of Gymnema leaves obtained commercially containing 7 mg of G2 was drunk and urine monitored for G2 over 4 hours (0-2 hours and 2-4 hours). An internal standard of 1 mg of castanospermine was added to the two samples of urine prior to applying to a cation exchange resin (IR120 in the H^+ form). After washing the resin with copious water, the bound material was displaced wing excess 2M NH4^+ solution and dried for GC-MS analysis. The samples were derivatised using Pierce Tri-Sil to produce trimethyl-silyl-derivatives of the imino sugars and imino sugar acids. GC-MS was carried out on a Perkin Elmer TurboMass Gold mass spectrometer, with a quadrupole ion filter system, which was run at 250° C. constantly during analysis. The detector mass range was set to 100 to 650 amu. The temperature of the transfer line (GC to MS) was held at 250° C. The GC column was a […] fused-silica column (Varian ‘Factor Four’ VF-5 ms column, 25 m×0.25 mm i.d., 0.25 μm phase thickness). The carrier gas (helium) flow rate was 1 ml min-1. G2 gives a characteristic mass spectrum as the tms derivative and was well resolved allowing quantification.

T2 sequence (P07768 whole entry): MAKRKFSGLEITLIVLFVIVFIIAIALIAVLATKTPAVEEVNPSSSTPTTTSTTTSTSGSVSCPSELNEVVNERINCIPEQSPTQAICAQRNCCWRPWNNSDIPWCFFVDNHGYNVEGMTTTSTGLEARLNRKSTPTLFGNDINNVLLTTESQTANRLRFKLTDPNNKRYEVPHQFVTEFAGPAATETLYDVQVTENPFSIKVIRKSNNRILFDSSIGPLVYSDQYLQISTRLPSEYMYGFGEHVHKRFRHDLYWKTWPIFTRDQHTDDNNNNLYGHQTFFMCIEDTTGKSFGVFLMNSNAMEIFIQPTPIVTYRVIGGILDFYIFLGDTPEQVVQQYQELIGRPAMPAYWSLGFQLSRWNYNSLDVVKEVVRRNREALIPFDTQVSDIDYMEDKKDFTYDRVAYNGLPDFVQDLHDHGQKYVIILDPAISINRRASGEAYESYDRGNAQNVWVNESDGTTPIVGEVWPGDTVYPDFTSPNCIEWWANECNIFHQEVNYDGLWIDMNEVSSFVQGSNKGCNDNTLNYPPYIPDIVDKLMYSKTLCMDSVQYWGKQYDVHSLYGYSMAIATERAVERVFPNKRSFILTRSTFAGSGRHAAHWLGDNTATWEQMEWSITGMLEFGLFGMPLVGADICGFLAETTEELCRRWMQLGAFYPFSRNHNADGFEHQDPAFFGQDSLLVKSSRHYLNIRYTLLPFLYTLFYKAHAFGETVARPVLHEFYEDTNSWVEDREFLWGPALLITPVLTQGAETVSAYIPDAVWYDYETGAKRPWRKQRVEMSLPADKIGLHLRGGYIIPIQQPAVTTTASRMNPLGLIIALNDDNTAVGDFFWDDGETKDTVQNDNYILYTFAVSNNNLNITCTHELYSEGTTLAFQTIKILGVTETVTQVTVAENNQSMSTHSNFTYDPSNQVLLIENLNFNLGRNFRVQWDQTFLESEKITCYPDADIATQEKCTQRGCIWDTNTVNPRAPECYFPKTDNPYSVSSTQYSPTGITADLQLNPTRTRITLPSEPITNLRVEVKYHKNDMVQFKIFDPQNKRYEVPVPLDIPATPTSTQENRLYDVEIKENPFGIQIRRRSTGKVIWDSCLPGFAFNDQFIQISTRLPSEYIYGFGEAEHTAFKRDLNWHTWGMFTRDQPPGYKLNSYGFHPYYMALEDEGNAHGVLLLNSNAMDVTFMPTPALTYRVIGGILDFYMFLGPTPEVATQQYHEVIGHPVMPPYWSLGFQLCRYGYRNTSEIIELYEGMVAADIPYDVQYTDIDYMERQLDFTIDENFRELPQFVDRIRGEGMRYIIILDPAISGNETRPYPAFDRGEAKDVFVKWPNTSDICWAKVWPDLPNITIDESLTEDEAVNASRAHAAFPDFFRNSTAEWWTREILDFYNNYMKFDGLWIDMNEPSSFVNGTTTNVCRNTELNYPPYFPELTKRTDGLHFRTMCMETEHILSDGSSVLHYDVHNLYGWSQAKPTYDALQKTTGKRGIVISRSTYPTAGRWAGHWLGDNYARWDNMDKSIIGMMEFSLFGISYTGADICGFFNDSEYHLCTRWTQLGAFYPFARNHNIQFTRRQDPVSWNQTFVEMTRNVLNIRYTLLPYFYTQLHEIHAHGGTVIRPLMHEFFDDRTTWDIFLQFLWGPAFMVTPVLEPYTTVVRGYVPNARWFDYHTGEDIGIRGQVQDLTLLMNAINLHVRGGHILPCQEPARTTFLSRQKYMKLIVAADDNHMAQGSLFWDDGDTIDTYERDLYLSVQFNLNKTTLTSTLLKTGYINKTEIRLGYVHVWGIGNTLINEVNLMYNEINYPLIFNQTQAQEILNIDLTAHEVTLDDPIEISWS
T1 sequence (P07768 whole entry): as above
T3 sequence (P23739 whole entry): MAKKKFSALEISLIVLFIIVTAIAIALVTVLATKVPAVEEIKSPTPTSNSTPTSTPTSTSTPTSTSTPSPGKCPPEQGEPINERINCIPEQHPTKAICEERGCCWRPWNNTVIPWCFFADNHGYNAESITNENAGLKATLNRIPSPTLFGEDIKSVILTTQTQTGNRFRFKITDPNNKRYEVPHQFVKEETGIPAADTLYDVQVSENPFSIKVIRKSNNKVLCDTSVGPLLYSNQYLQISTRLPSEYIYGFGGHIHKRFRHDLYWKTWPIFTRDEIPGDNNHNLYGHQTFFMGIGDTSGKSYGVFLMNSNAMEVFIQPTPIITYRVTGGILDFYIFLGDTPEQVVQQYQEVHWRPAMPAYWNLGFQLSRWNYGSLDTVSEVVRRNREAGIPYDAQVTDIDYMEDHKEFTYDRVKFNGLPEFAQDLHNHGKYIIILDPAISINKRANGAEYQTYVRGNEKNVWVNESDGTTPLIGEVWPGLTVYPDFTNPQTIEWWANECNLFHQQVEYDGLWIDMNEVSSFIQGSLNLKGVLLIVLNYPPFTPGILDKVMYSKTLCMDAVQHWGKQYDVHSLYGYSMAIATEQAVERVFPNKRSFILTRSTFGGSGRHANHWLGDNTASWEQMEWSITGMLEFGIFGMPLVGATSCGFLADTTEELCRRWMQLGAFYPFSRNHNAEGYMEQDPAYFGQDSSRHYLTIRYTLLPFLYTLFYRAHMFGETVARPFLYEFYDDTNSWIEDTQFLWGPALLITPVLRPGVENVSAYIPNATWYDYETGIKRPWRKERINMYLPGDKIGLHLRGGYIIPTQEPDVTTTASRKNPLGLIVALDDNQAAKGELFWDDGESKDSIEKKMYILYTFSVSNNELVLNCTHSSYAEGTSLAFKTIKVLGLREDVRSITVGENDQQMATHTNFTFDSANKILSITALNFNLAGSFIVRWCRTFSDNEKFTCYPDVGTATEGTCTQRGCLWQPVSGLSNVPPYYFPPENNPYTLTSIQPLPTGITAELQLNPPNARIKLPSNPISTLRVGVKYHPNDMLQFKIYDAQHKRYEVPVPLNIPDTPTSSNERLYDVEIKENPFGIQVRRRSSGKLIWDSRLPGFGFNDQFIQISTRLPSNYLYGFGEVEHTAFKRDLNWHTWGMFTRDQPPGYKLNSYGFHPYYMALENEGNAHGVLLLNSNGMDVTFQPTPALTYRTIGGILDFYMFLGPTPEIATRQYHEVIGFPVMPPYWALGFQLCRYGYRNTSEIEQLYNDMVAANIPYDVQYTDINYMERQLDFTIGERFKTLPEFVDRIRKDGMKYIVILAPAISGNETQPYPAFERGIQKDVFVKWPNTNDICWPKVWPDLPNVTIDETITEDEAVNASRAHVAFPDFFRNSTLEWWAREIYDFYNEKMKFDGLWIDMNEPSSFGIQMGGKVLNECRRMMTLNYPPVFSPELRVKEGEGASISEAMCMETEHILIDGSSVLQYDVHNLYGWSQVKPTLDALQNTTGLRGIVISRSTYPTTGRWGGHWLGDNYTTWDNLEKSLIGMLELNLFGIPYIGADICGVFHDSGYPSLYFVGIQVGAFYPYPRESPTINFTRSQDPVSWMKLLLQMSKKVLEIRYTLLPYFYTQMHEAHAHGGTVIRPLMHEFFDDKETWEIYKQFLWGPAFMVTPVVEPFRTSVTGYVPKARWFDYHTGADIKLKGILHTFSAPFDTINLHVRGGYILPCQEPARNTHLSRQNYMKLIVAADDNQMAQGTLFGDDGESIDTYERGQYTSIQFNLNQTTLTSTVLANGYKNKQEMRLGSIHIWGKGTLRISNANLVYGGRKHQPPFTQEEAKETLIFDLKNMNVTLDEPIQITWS
rat intestinal trehalase, sequence (G3V7Q9 21-553): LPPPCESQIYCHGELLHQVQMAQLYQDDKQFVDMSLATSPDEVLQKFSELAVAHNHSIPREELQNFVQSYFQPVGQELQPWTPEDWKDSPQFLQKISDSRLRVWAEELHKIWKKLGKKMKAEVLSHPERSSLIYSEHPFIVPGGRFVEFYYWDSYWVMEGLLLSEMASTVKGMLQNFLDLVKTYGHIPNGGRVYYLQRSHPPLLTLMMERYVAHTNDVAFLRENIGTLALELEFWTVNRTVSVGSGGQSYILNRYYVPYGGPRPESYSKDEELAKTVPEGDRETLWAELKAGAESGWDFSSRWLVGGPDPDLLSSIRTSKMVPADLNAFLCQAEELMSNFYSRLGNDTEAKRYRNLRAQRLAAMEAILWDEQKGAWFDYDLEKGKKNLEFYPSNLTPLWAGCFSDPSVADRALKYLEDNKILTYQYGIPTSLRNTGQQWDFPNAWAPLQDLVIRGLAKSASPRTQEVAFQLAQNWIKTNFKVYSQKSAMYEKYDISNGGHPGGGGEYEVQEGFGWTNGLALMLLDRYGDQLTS

Row | Structure (SMILES) | IC50 [1] [µM] | IC50 [2] [µM] | IC50 [3] [µM] | % inhibition, N-acetyl-β-D-glucosaminidase (Bovine kidney) [4] | IC50 ([4]; read-out: IC50, N-acetyl-β-D-glucosaminidase (Bovine kidney)) [µM] | IC50 ([4]; read-out: IC50 against mammalian 6-N-acetylglucosaminidase (hexosaminidase)) [µM] | sucrase IC50 (uM) [1] | maltase IC50 (uM) [2] | % inhibition, β-D-glucosidase (Almond) [5] | % inhibition, Naringinase Penicillium decumbens [6] | % inhibition, N-acetyl-β-D-glucosaminidase (Jack bean) [7] | % inhibition, β-D-mannosidase Cellullomonas fimi [8] | IC50 [9] [µM] | IC50 [10] [µM] | IC50 [11] [µM] | G2 recovered in urine ([12]; oral water extract containing 7 mg of G2, within four hours) [mg] | G2 in urine ([12]; oral water extract of Gymnema leaves containing 7 mg of G2, urine 0-2 hours and 2-4 hours)
1 | CCCCOC(=O)[C@@H]1[C@@H](O)[C@H](O)[C@@H](O)CN1CCCC [Compound T2, (2S,3R,4R,5S)-Butyl 1-butyl-3,4,5-trihydroxypiperidine-2-carboxylate] | > 800 | > 800 | > 800 | – | – | – | – | – | – | – | – | – | – | – | – | – | –
2 | O=C(O)CCN1C[C@H](O)[C@@H](O)[C@H](O)[C@H]1CO [Compound T1] | 6.1 | 19 | – | 86.1% | 32.2 | 32 | very weak inhibition | very weak inhibition | – | – | – | – | – | – | – | – | –
3 | O=C(O)CN1[C@H](CO)[C@@H](O)[C@H](O)[C@H]1CO [Compound S2, 2-((2R,3R,4R,5R)-3,4-Dihydroxy-2,5-bis(hydroxymethyl)pyrrolidin-1-yl)acetic acid] | > 800 | > 800 | – | – | – | – | – | – | 55% | – | – | – | – | – | – | – | –
4 | OC[C@H]1NC[C@H](O)[C@@H](O)[C@@H]1O [DNJ, 1-deoxynojirimycin, reference compound] | 0.09 | 0.18 | 0.02 | – | – | – | – | – | – | 20% and 21% | NI (NI = no inhibition) | – | – | – | – | – | –
5 | O=C(O)[C@H]1NC[C@H](O)[C@@H](O)[C@@H]1O [Compound G2, 2S,3R,4R,5S-trihydroxypiperidine-2-carboxylic acid] | > 800 | > 800 | > 800 | NI (NI = no inhibition) | – | – | – | – | NI (NI = no inhibition) | NI (NI = no inhibition) | 10% | NI (NI = no inhibition) | > 1000 | > 1000 | > 1000 | ~7 | detected
